Data on 18 compounds can be found in EP2955179A1, “CONDENSED HETEROCYCLIC COMPOUND” (Sumitomo Chemical Company Limited, priority 2013, dated 2014).

Common to all, as to type: in vivo
For assay [1], the system named is Plutella xylostella. Kind of assay: Test Example 6: spray on cabbage, Plutella xylostella larvae released. The following applies: 120 h, read-out: death rate. The method, then: On the other hand, on cabbage at the third leaf stage planted in a polyethylene cup was sprayed, at a rate 20 mL/cup, the test drug solution. After the drug solution was dried, the foliage part was cut off, and then placed in a 50 mL volume cup. Five second instar larvae of Plutella xylostella were released into the cup, and the cup was sealed with a lid. After the cup was kept at 25°C for 5 days, the number of dead insects was counted. The death rate was calculated according to the following equation. Death rate (%) = (Number of dead insects/Number of tested insects) × 100 [formula]

In assay [2] the test system is Musca domestica. Kind of assay: whole plant or invertebrate. Conditions: 24 h, read-out: death rate. The method, then: The formulations of Compounds of Present Invention 1-1, 1-40 and 1-42 as obtained in Formulation Example 5 were diluted with water, so as to have a concentration of the active ingredient of 500 ppm, to prepare a test drug solution.
A filter paper having a diameter of 5.5 cm was spread on the bottom of a polyethylene cup having the same diameter and 0.7 ml of the test drug solution was added dropwise onto the filter paper, and 30 mg of sucrose was uniformly placed as bait. Into the polyethylene cup, 10 female imagoes of Musca domestica were released, and the cup was sealed with a lid. After 24 hours, the life and death of Musca domestica was examined, the number of dead insects was counted, and the death rate was calculated according to the following equation. Death rate (%) = (Number of dead insects/Number of tested insects) × 100 [formula]

In assay [3] the test system is Culex pipiens pallens. Kind of assay: Test Example 10: Culex pipiens pallens larvae in treated water. Conditions: 24 h, read-out: death rate. From the text: 20 last-instar larvae of Culex pipiens pallens were released into the solution. One day later, the life and death of the Culex pipiens pallens was examined, and the number of dead insects was counted to calculate the death rate. Death rate (%) = (Number of dead insects/Number of tested insects) × 100 [formula]

Assay [4] has as its system Haemaphysalis longicornis. Briefly: Test Example 11: coated screw tube contact test, Haemaphysalis longicornis ticks. The following applies: 48 h, 2 mg compound in 0.2 mL acetone coated on inner wall of screw tube, unfed nymphal ticks, after 2 days, read-out: death rate. The method, then:
2 mg of each of Compounds of Present Invention 1-5, 1-24, 1-32 to 1-33, and 1-36 was weighed in a screw tube (Maruemu No. 5; 27 × 55 mm), 0.2 mL of acetone was added thereto, and the screw tube was sealed with a cap to dissolve the compound. The screw tube was rotated and inverted to uniformly coat the drug solution onto the whole inner wall of the tube. After removing the cap, the solution was air-dried for about 2 hours, then unfed nymphal ticks, Haemaphysalis longicornis (5 ticks/group) were released, and the tube was sealed with the cap. After 2 days, the number of dead insects was counted, and the death rate was calculated according to the following equation. Death rate (%) = (Number of dead insects/Number of tested insects) × 100 [formula]

The test system of assay [5] is Nilaparvata lugens. Briefly: Test Example 4: drench at foot of rice seedling, Nilaparvata lugens larvae released. The following applies: active ingredient 500 ppm, 5 ml drench at foot of rice seedling, 7 days at 25°C, then third-fourth instar larvae kept 6 days; for mortality at 500 ppm: Nilaparvata lugens, soil, 144 h, read-out: control value.
For assay [6], the system named is Adoxophyes orana fasciata. Kind of assay: Test Example 7: spray on apple tree, Adoxophyes orana fasciata larvae released. Conditions: in Malus domestica, 168 h, active ingredient 500 ppm, 20 mL/cup sprayed on apple tree, first-instar larvae, after 7 days, read-out: death rate. The method, then: The formulations of Compounds of Present Invention 1-1 to 1-6, 1-10, 1-21, 1-28, 1-31 to 1-34, 1-39 and 1-42 as obtained in Formulation Example 5 were diluted with water, so as to have a concentration of the active ingredient of 500 ppm, to prepare a test spray solution.
On the other hand, an apple tree was planted in a plastic cup, and grown until the seventh-eighth true leaf was spread. To the apple tree was sprayed, at a rate of 20 mL/cup, the test drug solution. After the drug solution was dried, 60 first-instar larvae of Adoxophyes orana fasciata were released, and covered with a plastic cup the bottom of which was cut off and on which a filter paper was put, with the plastic cup cover placed upside-down. After 7 days, the number of dead insects was counted, and the death rate was calculated according to the following equation. Death rate (%) = (Number of dead insects/Number of tested insects) × 100 [formula]

Assay [7] concerns Aphis gossypii. Briefly: Test Example 2: drench at foot of cucumber seedling, later inoculated with Aphis gossypii. Conditions: soil, 144 h, active ingredient 500 ppm, 5 ml drench at foot of cucumber seedling, 7 days at 25°C, then inoculated and kept 6 days, read-out: control value. The method, then:
(§1) On the other hand, a cucumber seedling (the second true leaf stage) planted in a plastic cup was drenched at its foot with 5 ml of the test drug solution, and kept in a greenhouse at 25°C for 7 days. On the cucumber leaf surface was inoculated about 30 Aphis gossypii (whole stage), and further kept in the greenhouse for 6 days, then the number of surviving Aphis gossypii parasitic on the leaves of the cucumber was examined, and the control value was calculated according to the following equation: Control value (%) = {1-(Cb×Tai)/(Cai×Tb)} × 100 [formula] wherein the symbols represent as follows: • Cb: the number of insects in a non-treated section before treatment • Cai: the number of surviving parasitic insects in a non-treated section on observation • Tb: the number of insects in a treated section before treatment • Tai: the number of surviving parasitic insects in a treated section on observation • wherein the non-treated section refers to a section where the test drug solution prepared by diluting the formulation obtained as in Formulation Example 5 but not containing the compound of the present invention with the same amount of water as in the treated section was sprayed.

The subject of assay [8] is Aphis gossypii. Briefly: Test Example 1: foliar spray on cucumber seedling inoculated with Aphis gossypii. Conditions: 144 h, active ingredient 500 ppm, 20 ml sprayed on cucumber seedling, six days after spraying, read-out: control value. The method, then: as §1, with “hand, on” for “hand,”, “first” for “second”, “inoculated” for “drenched at its foot”, “with” for “with 5 ml of the test drug solution, and kept in a greenhouse at 25°C for 7 days. On the cucumber leaf surface was inoculated”, “left for a day. 20 ml of” for “further kept in”, “test drug solution was sprayed on the seedling. Six days after spraying,” for “greenhouse for 6 days, then”

Assay [9] relates to Nilaparvata lugens. Briefly: Test Example 3: spray on rice seedling, Nilaparvata lugens larvae released. The following applies: 144 h, active ingredient 500 ppm, 10 ml sprayed on rice seedling, third-fourth instar larvae, after 6 days, read-out: control value.
[10] abbreviates: active ingredient 500 ppm, 20 mL/cup sprayed on cabbage, second instar larvae, 25°C for 5 days.
[11] abbreviates: active ingredient concentration 3.5 ppm in ion-exchanged water, last-instar larvae, one day later.

Like-named read-outs stand apart in the source and are kept apart here. Where only a bound is given, the exact number is not on record here.

For the compound `CCS(=O)(=O)c1cc(C(=O)OC)cnc1-c1nc2cc(C(F)(F)F)cnc2n1C` [Compound of Present Invention 1-1, methyl 5-ethylsulfonyl-6-(3-methyl-6-trifluoromethyl-3H-imidazo[4,5-b]pyridin-2-yl)nicotinate], the mortality at 500 ppm is at least 80% in assay [1] (setting [10]) and 100% in assay [2]. Moreover, in [3] (setting [11]), the mortality at 3.5 ppm is at least 95%.

As for `CCCOC(=O)c1cnc(-c2nc3cc(C(F)(F)F)cnc3n2C)c(S(=O)(=O)CC)c1` [Compound of Present Invention 1-4, propyl 5-ethylsulfonyl-6-(3-methyl-6-trifluoromethyl-3H-imidazo[4,5-b]pyridin-2-yl)nicotinate], the mortality at 500 ppm in [1] (setting [10]) was at least 80%.

Turning to `CCS(=O)(=O)c1cc(C(=O)OC(C)(C)C)cnc1-c1nc2cc(C(F)(F)F)cnc2n1C` [Compound of Present Invention 1-5, tert-butyl 5-ethylsulfonyl-6-(3-methyl-6-trifluoromethyl-3H-imidazo[4,5-b]pyridin-2-yl)nicotinate], in assay [4], the mortality at 2 mg/tube, 2 mg/tube is 100%.

For `CCS(=O)(=O)c1cc(C(=O)N(C)C)cnc1-c1nc2cc(C(F)(F)F)cnc2n1C` [Compound of Present Invention 1-6, 5-ethylsulfonyl-N,N-dimethyl-6-(3-methyl-6-trifluoromethyl-3H-imidazo[4,5-b]pyridin-2-yl)nicotinamide], the mortality at 500 ppm in [5] is at least 90%; in [1] (setting [10]), at least 80%. Moreover, the mortality at 3.5 ppm in assay [3] (setting [11]) is at least 95%.

With `CCS(=O)(=O)c1cc(C(=O)NN(C)C)cnc1-c1nc2cc(C(F)(F)F)cnc2n1C` [Compound of Present Invention 1-7, 5-ethylsulfonyl-N',N'-dimethyl-6-(3-methyl-6-trifluoromethy 1-3H-imidazo[4,5-b]pyridin-2-yl)nicotinic acid hydrazide], the mortality at 500 ppm in assay [1] was at least 80%. The mortality at 3.5 ppm in [3] was at least 95%.

As to `CCS(=O)(=O)c1cc(C(=O)N2CCCC2)cnc1-c1nc2cc(C(F)(F)F)cnc2n1C` [Compound of Present Invention 1-8, 5-ethylsulfonyl-6-(3-methyl-6-trifluoromethyl-3H-imidazo[4,5-b]pyridin-2-yl)nicotinoylpyrrolidine], the control value in [5] is at least 90%.

Consider `CCS(=O)(=O)c1cc(C(=O)NC(C)(C)C)cnc1-c1nc2cc(C(F)(F)F)cnc2n1C` [Compound of Present Invention 1-10, N-tert-butyl-5-ethylsulfonyl-6-(3-methyl-6-trifluoromethyl-3H-imidazo[4,5-b]pyridin-2-yl)nicotinamide], for which the mortality at 500 ppm in assay [5] is at least 90%; in assay [1] (setting [10]) it was at least 80%; in [6], at least 90%.

As for `CCS(=O)(=O)c1cc(C(=O)N2CCOCC2)cnc1-c1nc2cc(C(F)(F)F)cnc2n1C` [Compound of Present Invention 1-13], in assay [7], the mortality at 500 ppm is at least 90%. Further, the mortality at 3.5 ppm in [3] (setting [11]) is at least 95%.

Take `CCS(=O)(=O)c1cc(C(=O)N(C)OC)cnc1-c1nc2cc(C(F)(F)F)cnc2n1C` [Compound of Present Invention 1-18, 5-ethylsulfonyl-N-methoxy-N-methyl-6-(3-methyl-6-trifluoromethyl-3H-imidazo[4,5-b]pyridin-2-yl)nicotinamide]: the mortality at 500 ppm in assay [8], in [7] and in assay [9] was at least 90% throughout.

With `CCS(=O)(=O)c1cc(C(=O)Nc2ccc(Cl)cc2)cnc1-c1nc2cc(C(F)(F)F)cnc2n1C` [Compound of Present Invention 1-20], the mortality at 3.5 ppm in [3] (setting [11]) is at least 95%.

Consider `CCS(=O)(=O)c1cc(C(C)=O)cnc1-c1nc2cc(C(F)(F)F)cnc2n1C` [Compound of Present Invention 1-21, 2-(5-acetyl-3-ethylsulfonylpyridin-2-yl)-3-methyl-6-trifluo romethyl-3H-imidazo[4,5-b] pyridine], for which the mortality at 500 ppm in [8], in assay [7] and in [6] was at least 90% throughout.

Take `CCS(=O)(=O)c1cc(C(=O)NC2CC2)cnc1-c1nc2cc(C(F)(F)F)cnc2n1C` [Compound of Present Invention 1-24]: in [4], the mortality at 2 mg/tube, 2 mg/tube stood at 100%.

In the case of `CCS(=O)(=O)c1cc(C(=O)OCC(F)(F)F)cnc1-c1nc2cc(C(F)(F)F)cnc2n1C` [Compound of Present Invention 1-28], the mortality at 500 ppm in assay [6] is at least 90%. The mortality at 3.5 ppm in [3] (setting [11]) was at least 95%.

As for `CCS(=O)(=O)c1cc(C(=O)OCc2ccccc2)cnc1-c1nc2cc(C(F)(F)F)cnc2n1C` [Compound of Present Invention 1-32], in assay [3] (setting [11]), the mortality at 3.5 ppm was at least 95%. For the same compound, in [4], the mortality at 2 mg/tube, 2 mg/tube was 100%.

As for `CCS(=O)(=O)c1cc(C(=O)OCCOC)cnc1-c1nc2cc(C(F)(F)F)cnc2n1C` [Compound of Present Invention 1-33], the mortality at 2 mg/tube, 2 mg/tube in assay [4] came to 100%.

As for `CCS(=O)(=O)c1cc(C(=O)NC2CSC2)cnc1-c1nc2cc(C(F)(F)F)cnc2n1C` [Compound of Present Invention 1-36], the mortality at 2 mg/tube, 2 mg/tube in [4] was 100%.

As for `CCOC(=O)c1cnc(-c2nc3cc([S+]([O-])C(F)(F)F)ccc3o2)c(S(=O)(=O)CC)c1` (centres unmarked) [Compound of Present Invention 1-39], the mortality at 500 ppm in [1] (setting [10]) is at least 80%; in [6] it was at least 90%. In [3] (setting [11]), the mortality at 3.5 ppm was at least 95%.

Consider `CCS(=O)(=O)c1cc(C(N)=O)cnc1-c1nc2cc([S+]([O-])C(F)(F)F)ccc2o1` (centres unmarked) [Compound of Present Invention 1-41], for which the mortality at 500 ppm in assay [1] (setting [10]) is at least 80%. The mortality at 3.5 ppm in assay [3] (setting [11]) was at least 95%.
